ChEMBL document CHEMBL1201862, “PubChem BioAssay data set” (2004)
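Cultured in 96-well plates, cells were exposed to test compound for 48 hours across five concentrations. GI50 marks 50% less growth.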 Calls of active or inactive are those of the source. Cut-off read from the data, not from the text of the source: active = GI50 up to about 1.1 µM and inactive = higher.

Assays:
Assay in all cases: inhibition of tumour cell growth, NCI panel, 48 h
[1] = test system: 786-0
[2] = test system: A498
[3] = test system: A549
[4] = test system: ACHN
[5] = test system: BT-549
[6] = test system: CCRF-CEM
[7] = test system: COLO 205
[8] = test system: DU-145
[9] = test system: EKVX
[10] = test system: HCC 2998
[11] = test system: HCT-116
[12] = test system: HCT-15
[13] = test system: HL-60
[14] = test system: HOP-62
[15] = test system: HOP-92
[16] = test system: HT-29
[17] = test system: Hs-578T
[18] = test system: IGROV-1
[19] = test system: K562
[20] = test system: LOX IMVI
[21] = test system: M14
[22] = test system: MCF7
[23] = test system: MDA-MB-231
[24] = test system: MDA-MB-435
[25] = test system: MDA-N
[26] = test system: Malme-3M
[27] = test system: NCI-H226
[28] = test system: NCI-H23
[29] = test system: NCI-H460
[30] = test system: NCI-H522
[31] = test system: NCI/ADR-RES
[32] = test system: OVCAR-3
[33] = test system: OVCAR-4
[34] = test system: OVCAR-5
[35] = test system: OVCAR-8
[36] = test system: PC-3
[37] = test system: RXF 393
[38] = test system: SF-268
[39] = test system: SF-295
[40] = test system: SF-539
[41] = test system: SK-MEL-28
[42] = test system: SK-MEL-2
[43] = test system: SK-MEL-5
[44] = test system: SK-OV-3
[45] = test system: SN12C
[46] = test system: SNB-19
[47] = test system: SNB-75
[48] = test system: SW-620
[49] = test system: TK-10
[50] = test system: U-251
[51] = test system: UACC-257
[52] = test system: UACC-62
[53] = test system: UO-31
[54] = test system: CAKI-1
[55] = test system: KM12
[56] = test system: MOLT-4
[57] = test system: RPMI-8226
[58] = test system: SR
[59] = test system: T47D

Question: With `Cc1ccc(S(=O)(=O)N[C@@H](Cc2ccccc2)C(=O)CCl)cc1` [TPCK] as the compound, how does the GI50 [1] read?
Answer: 13.9 µM (inactive)

Question: What about the GI50 [2] of the same compound?
Answer: 17.8 µM (inactive)

Question: What about the GI50 [3] of the same compound?
Answer: 15.7 µM (inactive)

Question: What about the GI50 [4] of the same compound?
Answer: 16.5 µM (inactive)

Question: What about the GI50 [5] of the same compound?
Answer: 11.7 µM (inactive)

Question: And the GI50 [6]?
Answer: 3.7 µM (inactive)

Question: What about the GI50 [7] of the same compound?
Answer: 17.5 µM (inactive)

Question: And the GI50 [8]?
Answer: 17.7 µM (inactive)

Question: What about the GI50 [9] of the same compound?
Answer: 17.2 µM (inactive)

Question: And the GI50 [10]?
Answer: 13.9 µM (inactive)

Question: And the GI50 [11]?
Answer: 11.6 µM (inactive)

Question: What about the GI50 [12] of the same compound?
Answer: 16 µM

Question: And the GI50 [13]?
Answer: 4.66 µM (inactive)

Question: And the GI50 [14]?
Answer: 17.3 µM (inactive)

Question: And the GI50 [15]?
Answer: 13.6 µM (inactive)

Question: And the GI50 [16]?
Answer: 14.9 µM (inactive)

Question: And the GI50 [17]?
Answer: 1.82 µM (inactive)

Question: What about the GI50 [18] of the same compound?
Answer: 14.9 µM (inactive)

Question: What about the GI50 [19] of the same compound?
Answer: 9.75 µM (inactive)

Question: And the GI50 [20]?
Answer: 7.08 µM (inactive)

Question: And the GI50 [21]?
Answer: 13.4 µM (inactive)

Question: And the GI50 [22]?
Answer: 10.5 µM (inactive)

Question: What about the GI50 [23] of the same compound?
Answer: 14.2 µM (inactive)

Question: What about the GI50 [24] of the same compound?
Answer: 14.3 µM (inactive)

Question: What about the GI50 [25] of the same compound?
Answer: 14.3 µM (inactive)

Question: What about the GI50 [26] of the same compound?
Answer: 14.6 µM (inactive)

Question: And the GI50 [27]?
Answer: 15.2 µM (inactive)

Question: What about the GI50 [28] of the same compound?
Answer: 13.6 µM (inactive)

Question: What about the GI50 [29] of the same compound?
Answer: 15.5 µM (inactive)

Question: And the GI50 [30]?
Answer: 9.68 µM (inactive)

Question: And the GI50 [31]?
Answer: 19.9 µM (inactive)

Question: What about the GI50 [32] of the same compound?
Answer: 15.8 µM (inactive)

Question: And the GI50 [33]?
Answer: 4.93 µM (inactive)

Question: And the GI50 [34]?
Answer: 16.6 µM (inactive)

Question: And the GI50 [35]?
Answer: 13.7 µM (inactive)

Question: And the GI50 [36]?
Answer: 15.4 µM (inactive)

Question: And the GI50 [37]?
Answer: 1.38 µM (inactive)

Question: What about the GI50 [38] of the same compound?
Answer: 15.7 µM (inactive)

Question: And the GI50 [39]?
Answer: 18.9 µM (inactive)

Question: What about the GI50 [40] of the same compound?
Answer: 16.5 µM (inactive)

Question: And the GI50 [41]?
Answer: 18.6 µM (inactive)

Question: What about the GI50 [42] of the same compound?
Answer: 12.9 µM (inactive)

Question: And the GI50 [43]?
Answer: 12.2 µM (inactive)

Question: What about the GI50 [44] of the same compound?
Answer: 24.2 µM (inactive)

Question: And the GI50 [45]?
Answer: 12.7 µM (inactive)

Question: And the GI50 [46]?
Answer: 16.9 µM (inactive)

Question: And the GI50 [47]?
Answer: 14.3 µM (inactive)

Question: And the GI50 [48]?
Answer: 11.5 µM (inactive)

Question: And the GI50 [49]?
Answer: 17.2 µM (inactive)

Question: What about the GI50 [50] of the same compound?
Answer: 16.2 µM (inactive)

Question: And the GI50 [51]?
Answer: 12.3 µM (inactive)

Question: What about the GI50 [52] of the same compound?
Answer: 13.6 µM (inactive)

Question: What about the GI50 [53] of the same compound?
Answer: 14.1 µM (inactive)

Question: How did the GI50 [1] turn out when `COc1ccc(C(Cc2ccccc2)C2NC(=S)NC2=O)cc1` (stereo not drawn) was run?
Answer: > 25 µM (inactive)

Question: And the GI50 [2]?
Answer: > 25 µM (inactive)

Question: And the GI50 [3]?
Answer: > 25 µM (inactive)

Question: What about the GI50 [4] of the same compound?
Answer: > 25 µM (inactive)

Question: What about the GI50 [54] of the same compound?
Answer: > 25 µM (inactive)

Question: And the GI50 [6]?
Answer: > 25 µM (inactive)

Question: And the GI50 [7]?
Answer: > 25 µM (inactive)

Question: What about the GI50 [8] of the same compound?
Answer: > 25 µM (inactive)

Question: What about the GI50 [9] of the same compound?
Answer: > 25 µM (inactive)

Question: And the GI50 [11]?
Answer: > 25 µM (inactive)

Question: What about the GI50 [12] of the same compound?
Answer: > 25 µM

Question: What about the GI50 [13] of the same compound?
Answer: > 25 µM (inactive)

Question: And the GI50 [14]?
Answer: > 25 µM (inactive)

Question: What about the GI50 [15] of the same compound?
Answer: > 25 µM (inactive)

Question: And the GI50 [16]?
Answer: > 25 µM (inactive)

Question: And the GI50 [17]?
Answer: > 25 µM (inactive)

Question: What about the GI50 [18] of the same compound?
Answer: > 25 µM (inactive)

Question: And the GI50 [19]?
Answer: > 25 µM (inactive)

Question: And the GI50 [55]?
Answer: > 25 µM (inactive)

Question: What about the GI50 [20] of the same compound?
Answer: > 25 µM (inactive)

Question: And the GI50 [21]?
Answer: > 25 µM (inactive)

Question: And the GI50 [22]?
Answer: > 25 µM (inactive)

Question: What about the GI50 [23] of the same compound?
Answer: > 25 µM (inactive)

Question: And the GI50 [24]?
Answer: > 25 µM (inactive)

Question: And the GI50 [56]?
Answer: > 25 µM (inactive)

Question: And the GI50 [26]?
Answer: > 25 µM (inactive)

Question: What about the GI50 [27] of the same compound?
Answer: > 25 µM (inactive)

Question: What about the GI50 [28] of the same compound?
Answer: > 25 µM (inactive)

Question: And the GI50 [29]?
Answer: > 25 µM (inactive)

Question: What about the GI50 [30] of the same compound?
Answer: > 25 µM (inactive)

Question: What about the GI50 [31] of the same compound?
Answer: > 25 µM (inactive)

Question: And the GI50 [32]?
Answer: > 25 µM (inactive)

Question: What about the GI50 [33] of the same compound?
Answer: > 25 µM (inactive)

Question: And the GI50 [34]?
Answer: > 25 µM (inactive)

Question: And the GI50 [35]?
Answer: > 25 µM (inactive)

Question: And the GI50 [36]?
Answer: > 25 µM (inactive)

Question: And the GI50 [57]?
Answer: > 25 µM (inactive)

Question: What about the GI50 [37] of the same compound?
Answer: > 25 µM (inactive)

Question: What about the GI50 [38] of the same compound?
Answer: > 25 µM (inactive)

Question: And the GI50 [39]?
Answer: > 25 µM (inactive)

Question: And the GI50 [40]?
Answer: > 25 µM (inactive)

Question: What about the GI50 [41] of the same compound?
Answer: > 25 µM (inactive)

Question: What about the GI50 [42] of the same compound?
Answer: > 25 µM (inactive)

Question: What about the GI50 [43] of the same compound?
Answer: > 25 µM (inactive)

Question: And the GI50 [44]?
Answer: > 25 µM (inactive)

Question: What about the GI50 [45] of the same compound?
Answer: > 25 µM (inactive)

Question: What about the GI50 [46] of the same compound?
Answer: > 25 µM (inactive)

Question: And the GI50 [47]?
Answer: > 25 µM (inactive)

Question: What about the GI50 [58] of the same compound?
Answer: 9.27 µM (inactive)

Question: What about the GI50 [48] of the same compound?
Answer: > 25 µM (inactive)

Question: What about the GI50 [59] of the same compound?
Answer: > 25 µM (inactive)

Question: What about the GI50 [49] of the same compound?
Answer: > 25 µM (inactive)

Question: What about the GI50 [50] of the same compound?
Answer: > 25 µM (inactive)

Question: And the GI50 [51]?
Answer: > 25 µM (inactive)

Question: And the GI50 [53]?
Answer: > 25 µM (inactive)
